Columns and labels:
Type in all cases: biochemical, Picrophilus torridus
PTTS = test: Effects of metal ions and reagents on PTTS activity; conditions: 1 mM metal ion or reagent, standard assay conditions
Description: (§1) The activity of PTTS was assayed by measuring the amount of trehalose produced from maltose. The standard reaction was performed by adding 1.5 μL purified enzyme into 50 μL reaction solution containing 50 mM sodium phosphate (pH 6.0) and 150 mM maltose and incubating in a 45° C. water bath for 25 min. The assay time was under the linear range of enzyme reaction. The reaction was terminated by heating the mixture in boiling water for 15 min. One unit of enzyme activity was defined as the amount of enzyme that catalyzes the formation of 1 μmol of trehalose per min. Kinetic analysis was performed under conditions of pH 6.0 and 45° C. for 5 min in 50 mM sodium phosphate buffer containing substrate (maltose, trehalose, or maltose plus a constant 10 mM of glucose) at various concentrations. The resulting data were analyzed offline with Origin 6.0 software (Microcal, Northampton, Mass.). All experiments were carried out in duplicate or triplicate.
Effects of Metal Ions and Reagents on PTTS Activity. The effects of metal ions and reagents were determined by examining enzyme activity in the presence of 1 mM and 10 mM metal ions or reagents under standard assay conditions (FIG. 8).

recombinant PTTS = test: Substrate specificity of recombinant PTTS; conditions: standard assay conditions
Description: as §1
(§2) The amount of trehalose, glucose, and maltose after each enzymatic reaction was measured using a high performance liquid chromatography (HPLC) (SFD 2100) system equipped with an RI detector (Schambeck S F D, RI 2000) at a flow rate of 0.9 mL/min. A carbohydrate analysis column (HYPERSIL-100 Amino, Thermo Hypersil-Keystone) equilibrated with 75% acetonitrile, 24% Milli-Q water, and 1% formic acid was used. The retention times of glucose, maltose, and trehalose were 8.0, 11.2, and 12.5 min, respectively.
Substrate Specificity of Recombinant PTTS. […] It also acted on sucrose and catalyzed the formation of glucose, fructose, and trehalulose [α-D-glucopyranosyl-(1,1)-D-fructofuranose], however, the activity is quite low. In addition, it converted the α,β-1,1-trehalose to maltose, though only about 7% just as with the α,α-1,1-trehalose.

[1] = Enzyme assay: amount of trehalose produced from maltose by PTTS; conditions: PTTS without His-tag
Description: as §1, §2

| Molecule | inhibition of enzyme activity (PTTS) | activity of recombinant PTTS with the substance as substrate (recombinant PTTS) | further results |
| --- | --- | --- | --- |
| [Ag+] [Ag^+] | inhibited strongly | – | – |
| [Al+3] [Al^3+] | inhibited strongly | – | – |
| [Cd+2] [Cd^2+] | moderately | – | – |
| [Cu+2] [Cu^2+] | moderately | – | – |
| [Hg+2] [Hg^2+] | inhibited strongly | – | – |
| [Pb+2] [Pb^2+] | moderately | – | – |
| CCCCCCCCCCCCOS(=O)(=O)[O-].[Na+] [SDS] | inhibited strongly | – | – |
| NC(CO)(CO)CO [Tris] | moderately | – | – |
| O=C(CO)[C@@H](O)[C@H](O)[C@H](O)CO [fructose] | – | No detectable activities | – |
| O=C[C@H](O)[C@@H](O)[C@@H](O)[C@H](O)CO [galactose] | – | No detectable activities | – |
| OC[C@H]1O[C@H](OC[C@H]2OC(O)(CO)[C@@H](O)[C@@H]2O)[C@H](O)[C@@H](O)[C@@H]1O (stereo partly shown) [isomaltulose] | – | No detectable activities | – |
| OC[C@H]1O[C@@H](O[C@H]2[C@H](O)[C@@H](O)C(O)O[C@@H]2CO)[C@H](O)[C@@H](O)[C@H]1O (stereo partly shown) [lactose] | – | No detectable activities | – |
| OC[C@H]1O[C@H](O[C@H]2[C@H](O)[C@@H](O)[C@@H](O[C@H]3[C@H](O)[C@@H](O)[C@@H](O[C@H]4[C@H](O)[C@@H](O)[C@@H](O[C@H]5[C@H](O)[C@@H](O)C(O)O[C@@H]5CO)O[C@@H]4CO)O[C@@H]3CO)O[C@@H]2CO)[C@H](O)[C@@H](O)[C@@H]1O (stereo partly shown) [maltopentose] | – | No detectable activities | – |
| OC[C@H]1O[C@H](O[C@H]2[C@H](O)[C@@H](O)[C@H](O)O[C@@H]2CO)[C@H](O)[C@@H](O)[C@@H]1O [maltose] | – | converted them to each other | – |
| OC[C@H]1O[C@H](O[C@H]2[C@H](O)[C@@H](O)[C@@H](O[C@H]3[C@H](O)[C@@H](O)[C@@H](O[C@H]4[C@H](O)[C@@H](O)C(O)O[C@@H]4CO)O[C@@H]3CO)O[C@@H]2CO)[C@H](O)[C@@H](O)[C@@H]1O (stereo partly shown) [maltotetraose] | – | No detectable activities | – |
| OC[C@@H](O)[C@@H](O)[C@H](O)[C@@H](O)CO [sorbitol] | – | No detectable activities | – |
| OC[C@H]1O[C@@](CO)(O[C@H]2O[C@H](CO)[C@@H](O)[C@H](O)[C@H]2O)[C@@H](O)[C@@H]1O [sucrose] | – | quite low | – |
| OC[C@H]1O[C@H](O[C@H]2O[C@H](CO)[C@@H](O)[C@H](O)[C@H]2O)[C@H](O)[C@@H](O)[C@@H]1O [trehalose, α-D-glucopyranosyl α-D-glucopyranoside] | – | converted them to each other | – |
| OC[C@H]1O[C@@H](O[C@H]2O[C@H](CO)[C@@H](O)[C@H](O)[C@H]2O)[C@H](O)[C@@H](O)[C@@H]1O [α,β-1,1-trehalose] | – | – | conversion to maltose relative to α,α-1,1-trehalose (recombinant PTTS): about 7% |
| OC[C@H]1O[C@@H](O[C@@H]2O[C@H](CO)[C@@H](O)[C@H](O)[C@H]2O)[C@H](O)[C@@H](O)[C@@H]1O [β,β-1,1-trehalose] | – | No detectable activities | – |
| maltotriose | – | No detectable activities | – |
| native PTTS: Picrophilus torridus trehalose synthase protein without the linker and hexahistidine tag (SEQ ID NO: 3) (protein, listed as Picrophilus torridus) MLDNNGLWYRDAVFYEVPVKSFYDSNNDGIGDFNGLTMKLDYLKKLGVDALWLLPFYKSPLKDDGYDISDYYSILPEYGTIDDFKNFIDTAHSMNIRVIADLVLNHVSDQHPWFIESRSSIDNPKRDWFIWSDTPEKFKEARIIFIDTEKSNWTYDPETKQYYFHRFYSSQPDLNYDNPDVRNEVKKVIRYWLDLGLDGFRADAVPYLFKRENTNCENLPETHNFFKEIRKMMDEDYPGTILLAEANQWPTETKAYFGNGDEFHMAFNFPLMPRIFIALARSDYYPIMDIIKQTLPIPDNCDWCIFLRNHDELTLEMVTDSERDIMYREYAKIPKMRLNLGIRRRLAPLADNDINTIELLNALIFSLPGTPIIYYGDEIGMGDNIYLGDRNGVRTPMQWSYDRNAGFSMADSEQLYSPVITNPNYHYESVNVEAELRLSSSLLNWMIKIIHVRKDYKELLGRGSIKFIEQGNKRVLSYIREYENQRMLCLFNLSRNPTYVELNLSDYIGLKPIEAITKAAFPRIKDDRYFITMTPRSFFWFNLIVPERDDSYDLIGED | – | – | specific activity relative to the recombinant His-tag fusion PTTS [1]: about 1.3 fold |
